In article PMC7251097, “Aspartate/asparagine-β-hydroxylase: a high-throughput mass spectrometric assay for discovery of small molecule inhibitors” (Scientific Reports, 2020):
Where a name gives a salt, the structure may show the parent alone. Read-outs that look alike come from different tables or passages of the source.

Molecular target: T1, His6-AspH315–758 (human aspartate/asparagine-β-hydroxylase, AspH) (Homo sapiens, UniProt Q12797)
T1 construct: N-Terminally His6-tagged human AspH315–758 (His6-AspH315–758) was produced in E. coli BL21 (DE3) cells; made in house; host or cells: E. coli BL21 (DE3), pET-28a(+) vector
T1 sequence (Q12797 315-758): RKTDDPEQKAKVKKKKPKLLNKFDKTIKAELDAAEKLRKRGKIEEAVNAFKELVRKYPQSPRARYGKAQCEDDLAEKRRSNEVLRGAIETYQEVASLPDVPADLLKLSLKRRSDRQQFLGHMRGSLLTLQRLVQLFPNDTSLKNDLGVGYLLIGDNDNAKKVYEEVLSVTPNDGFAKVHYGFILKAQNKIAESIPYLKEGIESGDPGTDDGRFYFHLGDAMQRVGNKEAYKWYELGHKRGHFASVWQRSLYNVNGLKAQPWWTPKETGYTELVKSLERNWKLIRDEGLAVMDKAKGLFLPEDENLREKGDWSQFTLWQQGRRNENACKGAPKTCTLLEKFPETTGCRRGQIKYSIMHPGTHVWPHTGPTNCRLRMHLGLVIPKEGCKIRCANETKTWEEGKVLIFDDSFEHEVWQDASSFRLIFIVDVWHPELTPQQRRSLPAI
Test: SPE-MS AspH inhibition assay (LOPAC screen at fixed 20 μM and IC50 dose-response), hydroxylation of cyclic peptide hFX-CP101–119
Type: biochemical
Conditions: for Plate 1 (% inhibition) / Plate 1 (% conversion): LOPAC compound at fixed 20 uM; for Plate 1 (% inhibition): plate 1, normalised to DMSO and 2,4-PDCA controls; for Plate 1 (% conversion) / % conversion: substrate conversion; for Plate 5 (% inhibition) / Plate 5 (% conversion): plate 5 (Pfitzer), test compounds at fixed 20 μM; for Plate 5 (% conversion): mean conversion DMSO 32.88

[1] = LOPAC compound at 20uM, plate 2, conversion of substrate peptide
[2] = LOPAC compound at 20uM, plate 2, normalised to DMSO and 2,4-PDCA controls
[3] = LOPAC compound at 20uM, conversion of substrate peptide
[4] = LOPAC compound at 20uM, plate 2, normalised to DMSO and 2,4-PDCA controls, read-out: Plate 2 (% inhibition)
[5] = 50 nM His6-AspH315–758, 1.0 μM hFX-CP101–119, 3 μM 2OG, 2 μM Fe(II), 50 mM HEPES pH 7.5, 20 °C, mean ± SD, n = 2 (2,4-PDCA n = 10), read-out: IC50
[6] = read-out: Plate 2 (% inhibition)
[7] = LOPAC Plate 4, compound at 20 uM

O=C1NC(=O)c2cc(Nc3ccccc3)c(Nc3ccccc3)cc21 [DAPH]
Plate 1 (% inhibition): -7.17% | Plate 1 (% conversion): 38.28%

Clc1ccc(N2C[C@H]3CC[C@@H](C2)N3)nn1 [DBO-83]
Plate 2 (% conversion) [1]: 32.84% | Plate 2 (% inhibition) [2]: 9.30%

CCn1c(=O)[nH]c2cc(Cl)c(Cl)cc21 [DCEBIO]
Plate 2 (% conversion) [1]: 39.27% | Plate 2 (% inhibition) [2]: -9.89%

Fc1cccc(/C=N/N=C/c2cccc(F)c2)c1 [DFB]
Plate 3 (% conversion) [3]: 35.73%

c1ccc(-c2cnn3cc(-c4ccc(OCCN5CCOCC5)cc4)cnc23)cc1 [DMH4]
Plate 1 (% inhibition): -35.30% | Plate 1 (% conversion): 47.73%

CC(C)[C@@H]1CC[C@@H](C)C[C@@H]1P(=O)(c1ccccc1)c1ccccc1 [DPO-1]
Plate 2 (% conversion) [1]: 40.63% | Plate 2 (% inhibition) [2]: -13.96%

CN(C)NC(=O)CCC(=O)O [Daminozide, daminozide, reference compound]
IC50 [μM] (pH 7.5): inactive

C#C[C@]1(O)CC[C@H]2[C@@H]3CCC4=Cc5oncc5C[C@]4(C)[C@H]3CC[C@@]21C [Danazol]
Plate 2 (% conversion) [1]: 39.67% | inhibition at 20 µM [4]: -11.1%

O=c1ccc2ccc(O)c(O)c2o1 [Daphnetin, reference compound]
inhibition at 20 µM (AspH activity, fixed compound concentration 20 μM, initial LOPAC screen, 0.5%v/v DMSO, read-out: Inhibition at 20 µM [%]): 98.5%

C[N+](C)(C)CCCCCCCCCC[N+](C)(C)C.[Br-].[Br-] [Decamethonium dibromide]
Plate 2 (% conversion): 41.52% | Plate 2 (% inhibition) (20 µM): -16.63%

O=C(O)c1ccc(-n2nc(-c3ccccc3O)nc2-c2ccccc2O)cc1 [Deferasirox, reference compound]
IC50 [5]: 2.08 ± 0.81 µM

Cc1c(O)c(=O)ccn1C [Deferiprone, reference compound]
IC50 [5]: 4.89 ± 0.37 µM

CC(=O)N(O)CCCCCNC(=O)CCC(=O)N(O)CCCCCNC(=O)CCC(=O)N(O)CCCCCN [Deferoxamine mesylate, reference compound]
IC50 [5]: 3.16 ± 0.93 µM

CC(C)Nc1cccnc1N1CCN(C(=O)c2cc3cc(NS(C)(=O)=O)ccc3[nH]2)CC1 [Delavirdine]
Plate 5 (% inhibition): 28.61% | Plate 5 (% conversion): 26.58%

O=C(O)CNC(=O)c1c(O)c2ccccc2n(OCC2CC2)c1=O [Desidustat, desidustat, reference compound]
IC50 (IC50 [μM]): 16.3 ± 0.44 µM

CNCCCN1c2ccccc2CCc2ccccc21 [Desipramine hydrochloride]
Plate 2 (% conversion) [1]: 40.94% | inhibition at 20 µM [4]: -14.9%

O=c1c2ccccc2[nH]c(=S)n1CCN1CCC(=C(c2ccc(F)cc2)c2ccc(F)cc2)CC1 [Diacylglycerol Kinase Inhibitor II]
Plate 2 (% conversion) [1]: 21.33% | inhibition at 20 µM [4]: 43.7%

O=C(O)Cc1ccccc1Nc1c(Cl)cccc1Cl [Diclofenac sodium]
Plate 2 (% conversion) [1]: 32.33% | inhibition at 20 µM [4]: 10.8%

O=C(O)CN(CCN(CC(=O)O)CC(=O)O)CCN(CC(=O)O)CC(=O)O [Diethylenetriaminepentaacetic acid, reference compound]
Inhibition at 20 µM [%] (AspH activity, fixed compound concentration 20 μM, initial LOPAC screen, 0.5%v/v DMSO): 100.3% | Plate 2 (% conversion) [1]: 2.39% | Plate 2 (% inhibition) [2]: 100.26%

CN1C[C@H](C(=O)N[C@]2(C)O[C@@]3(O)[C@@H]4CCCN4C(=O)[C@H](Cc4ccccc4)N3C2=O)C[C@@H]2c3cccc4[nH]cc(c34)C[C@H]21 [Dihydroergotamine methanesulfonate]
Plate 2 (% conversion): 37.10% | inhibition at 20 µM [6]: -3.42%

CC(C)[C@H]1CN[C@H](C(=O)O)[C@H]1CC(=O)O [Dihydrokainic acid]
Plate 2 (% conversion): 34.38% | Plate 2 (% inhibition) (20 µM): 4.72%

C[C@@H]1O[C@@H](O[C@H]2C[C@@H](O)[C@]3(CO)[C@H]4[C@H](O)C[C@]5(C)[C@@H]([C@@H]6COC(=O)C6)CC[C@]5(O)[C@@H]4CC[C@]3(O)C2)[C@H](O)[C@H](O)[C@H]1O [Dihydroouabain]
Plate 2 (% conversion): 38.16% | Plate 2 (% inhibition) (20 µM): -6.59%

COc1cc(C(=O)OCCCN2CCCN(CCCOC(=O)c3cc(OC)c(OC)c(OC)c3)CC2)cc(OC)c1OC [Dilazep hydrochloride]
Plate 2 (% conversion) [1]: 41.49% | inhibition at 20 µM [4]: -16.5%

CN(C)CCOC(c1ccccc1)c1ccccc1 [Diphenhydramine hydrochloride]
inhibition at 20 µM [4]: -7.73%

c1ccc2c(c1)[I+]c1ccccc1-2 [Diphenyleneiodonium chloride]
Plate 2 (% conversion): 35.66% | inhibition at 20 µM [6]: 0.88%

CCCN(CCC)CCc1ccc(O)c(O)c1 [Dipropyldopamine hydrobromide]
Plate 2 (% conversion): 10.27% | inhibition at 20 µM [6]: 76.7%

OCCN(CCO)c1nc(N2CCCCC2)c2nc(N(CCO)CCO)nc(N3CCCCC3)c2n1 [Dipyridamole]
Plate 2 (% conversion) [1]: 42.60% | inhibition at 20 µM [4]: -19.9%

CC(CCc1ccc(O)cc1)NCCc1ccc(O)c(O)c1 (centres unmarked) [Dobutamine hydrochloride]
Plate 2 (% conversion) [1]: 8.47% | inhibition at 20 µM [4]: 82.1%

CN(CCOc1ccc(NS(C)(=O)=O)cc1)CCc1ccc(NS(C)(=O)=O)cc1 [Dofetilide]
inhibition at 20 µM [4]: -3.76% | Plate 5 (% inhibition): -1.04% | Plate 5 (% conversion): 36.67%

CS(=O)(=O)O.O.O=C(OC1C[C@@H]2CC3C[C@H](C1)N2CC3=O)c1c[nH]c2ccccc12 (some centres unmarked) [Dolasetron mesylate hydrate]
% inhibition [7]: -4.53% | % conversion [7]: 38.02%

Cl.N#Cc1ccc(N2CCN(C(=O)COc3ccc4[nH]cc(CCN)c4c3)CC2)cc1 [Donitriptan monohydrochloride]
Plate 2 (% conversion) [1]: 23.20% | Plate 2 (% inhibition) [2]: 38.09%

COc1cc2nc(N3CCN(C(=O)C4COc5ccccc5O4)CC3)nc(N)c2cc1OC (centres unmarked) [Doxazosin mesylate]
Plate 2 (% conversion) [1]: 41.90% | inhibition at 20 µM [4]: -17.8%

Cc1cc(Cl)ccc1OCCCC(=O)NO [Droxinostat]
Plate 1 (% inhibition): 1.86% | Plate 1 (% conversion): 35.25%

CCOC(=O)C1=C(O)C(=O)N(Cc2ccccc2)C1 [EBPC]
% conversion [7]: 36.52% | Plate 5 (% inhibition): 19.44% | Plate 5 (% conversion): 29.70%

O=C(O)CN(CCOCCOCCN(CC(=O)O)CC(=O)O)CC(=O)O [EGTA]
Plate 2 (% conversion) [1]: 38.29% | Plate 2 (% inhibition) [2]: -6.96%

C=Cc1cc(O)cc2nc(-c3ccc(O)c(F)c3)oc12 [ERB-041]
Plate 5 (% inhibition): 30.36% | Plate 5 (% conversion): 25.98%

O=c1c2ccccc2[se]n1-c1ccccc1 [Ebselen, ebselen, reference compound]
IC50 [5]: 0.12 ± 0.01 µM

CC[N+](C)(C)c1cccc(O)c1 [Edrophonium chloride]
Plate 2 (% conversion): 37.54% | inhibition at 20 µM [6]: -4.75%

CCC1(C2=NCCN2)Cc2ccccc2O1 (centres unmarked) [Efaroxan hydrochloride]
Plate 2 (% conversion) [1]: 34.90% | inhibition at 20 µM [4]: 3.14%

CN1CCC[C@@H]1Cc1c[nH]c2ccc(CCS(=O)(=O)c3ccccc3)cc12 [Eletriptan]
Plate 5 (% inhibition): 0.46% | Plate 5 (% conversion): 36.16%

OC(CN1CCC(Cc2ccc(F)cc2)CC1)c1ccc(Cl)cc1 (centres unmarked) [Eliprodil]
Plate 2 (% conversion) [1]: 39.73% | inhibition at 20 µM [4]: -11.3%

Cc1c2ccncc2c(C)c2c1[nH]c1ccccc12 [Ellipticine]
Plate 2 (% conversion): 45.95% | inhibition at 20 µM [4]: -29.9%

CC[C@H]1CN2CCc3cc(OC)c(OC)cc3[C@@H]2C[C@@H]1C[C@H]1NCCc2cc(OC)c(OC)cc21 [Emetine dihydrochloride hydrate]
Plate 2 (% conversion): 37.46% | inhibition at 20 µM [6]: -4.49%

Cc1cc(O)c2c(c1)C(=O)c1cc(O)cc(O)c1C2=O [Emodin]
Plate 2 (% conversion): 37.82% | inhibition at 20 µM [4]: -5.58%

C[C@H](N[C@@H](CCc1ccccc1)C(=O)O)C(=O)N1CCC[C@H]1C(=O)O.O.O [Enalaprilat dihydrate]
% conversion [7]: 37.37%

CC(C)C[C@H](NC(=O)[C@H](O)[C@H](N)Cc1ccccc1)C(=O)O [Epibestatin hydrochloride]
Plate 2 (% conversion) [1]: 35.33% | inhibition at 20 µM [4]: 1.86%

CCCCc1ncc(/C=C(\Cc2cccs2)C(=O)O)n1Cc1ccc(C(=O)O)cc1 [Eprosartan mesylate]
Plate 3 (% conversion) [3]: 33.79%

COc1ccc2[n-]c([S@@+]([O-])Cc3ncc(C)c(OC)c3C)nc2c1.COc1ccc2[n-]c([S@@+]([O-])Cc3ncc(C)c(OC)c3C)nc2c1.O.O.[Mg+2] [Esomeprazole magnesium dihydrate]
Plate 2 (% conversion) [1]: 41.52% | Plate 2 (% inhibition) [2]: -16.62%

C[C@]12CC[C@@H]3c4ccc(O)cc4CC[C@H]3[C@@H]1CCC2=O [Estrone]
Plate 2 (% conversion): 37.75% | inhibition at 20 µM [4]: -5.35%

CCOC(=O)c1cnc2c(cnn2CC)c1NN=C(C)C [Etazolate hydrochloride]
Plate 2 (% conversion) [1]: 58.51% | inhibition at 20 µM [4]: -67.4%
